Results taken from patent US20230278972A1, “SUBSTITUTED HALOALKYL SULFONANILIDE HERBICIDES” (FMC Corporation, priority 2020, published 2023).

Tests used:
Format in all cases: in vivo
corn (Zea mays) = assay: Test A postemergence, corn; conditions: Postemergence; for Corn plant response rating: 500 g ai/ha, visual injury vs untreated controls after approx. 10 days
Summary of the method: (§1)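 Whole-plant herbicidal screen in pots of loam blended with sand. Sprays used a surfactant-containing, non-phytotoxic solvent vehicle. Timing was preemergence soil-directed at planting or postemergence at the one- to two-leaf stage (2–10 cm).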

[1] = tested on: ragweed (common ragweed, Ambrosia artemisiifolia); assay: Test A postemergence, ragweed; conditions: Postemergence; for Ragweed plant response rating: 500 g ai/ha, visual injury vs untreated controls after approx. 10 days
Summary of the method: as §1

kochia (Bassia scoparia) [2] = assay: Test A postemergence, kochia; conditions: Postemergence; for Kochia plant response rating: 500 g ai/ha, visual injury vs untreated controls after approx. 10 days
Summary of the method: as §1

[3] = tested on: Ryegrass, Italian (Italian ryegrass, Lolium multiflorum); assay: Test A postemergence, Ryegrass, Italian; conditions: Postemergence; for Ryegrass, Italian plant response rating: 500 g ai/ha, visual injury vs untreated controls after approx. 10 days
Summary of the method: as §1

[4] = tested on: wheat (Triticum aestivum); assay: Test A postemergence, wheat; conditions: Postemergence; for Wheat plant response rating: 500 g ai/ha, visual injury vs untreated controls after approx. 10 days
Summary of the method: (§2)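 Pots: loam soil/sand blend. Pre: directed soil spray at planting. Post: plants 2–10 cm, 1–2 leaf stage. Formulation: non-phytotoxic solvent + surfactant.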

[5] = tested on: galium (catchweed bedstraw, Galium aparine); assay: Test A postemergence, galium; conditions: Postemergence; for Galium plant response rating: 500 g ai/ha, visual injury vs untreated controls after approx. 10 days
Summary of the method: as §2

[6] = tested on: Foxtail, Giant (giant foxtail, Setaria faberi); assay: Test A preemergence, Foxtail, Giant; conditions: Preemergence; for Foxtail, Giant plant response rating: 125 g ai/ha, visual injury on 0 to 100 scale (0 no effect, 100 complete control), approximately 10 days; for Plant response rating, Foxtail, Giant: 0 to 100 scale (0 no effect, 100 complete control)
Summary of the method: as §1

[7] = tested on: pigweed (Amaranthus retroflexus); assay: Test A preemergence, pigweed; conditions: for Pigweed plant response rating: 125 g ai/ha, visual injury on 0 to 100 scale (0 no effect, 100 complete control), approximately 10 days; for Plant response rating, Pigweed: 0 to 100 scale (0 no effect, 100 complete control)
Summary of the method: as §2

[8] = tested on: Foxtail, Giant (giant foxtail, Setaria faberi); assay: Test A postemergence, Foxtail, Giant; conditions: Postemergence; for Foxtail, Giant plant response rating: 500 g ai/ha, visual injury vs untreated controls after approx. 10 days
Summary of the method: as §1

[9] = tested on: pigweed (Amaranthus retroflexus); assay: Test A postemergence, pigweed; conditions: Postemergence; for Pigweed plant response rating: 500 g ai/ha, visual injury vs untreated controls after approx. 10 days
Summary of the method: as §1

[10] = tested on: barnyardgrass (Echinochloa crus-galli); assay: Test A preemergence, barnyardgrass; conditions: Preemergence; for Barnyardgrass plant response rating: 125 g ai/ha, visual injury on 0 to 100 scale (0 no effect, 100 complete control), approximately 10 days; for Plant response rating, Barnyardgrass: 0 to 100 scale (0 no effect, 100 complete control)
Summary of the method: as §1

kochia (Bassia scoparia) [11] = assay: Test A preemergence, kochia; conditions: Preemergence; for Kochia plant response rating: 125 g ai/ha, visual injury on 0 to 100 scale (0 no effect, 100 complete control), approximately 10 days; for Plant response rating, Kochia: 0 to 100 scale (0 no effect, 100 complete control)
Summary of the method: as §1

[12] = tested on: barnyardgrass (Echinochloa crus-galli); assay: Test A postemergence, barnyardgrass; conditions: Postemergence; for Barnyardgrass plant response rating: 500 g ai/ha, visual injury vs untreated controls after approx. 10 days
Summary of the method: as §2

[13] = tested on: ragweed (common ragweed, Ambrosia artemisiifolia); assay: Test A preemergence, ragweed; conditions: Preemergence; for Ragweed plant response rating: 125 g ai/ha, visual injury on 0 to 100 scale (0 no effect, 100 complete control), approximately 10 days; for Plant response rating, Ragweed: 0 to 100 scale (0 no effect, 100 complete control)
Summary of the method: as §1

[14] = tested on: blackgrass (Alopecurus myosuroides); assay: Test A postemergence, blackgrass; conditions: Postemergence; for Blackgrass plant response rating: 500 g ai/ha, visual injury vs untreated controls after approx. 10 days
Summary of the method: as §1

[15] = tested on: Ryegrass, Italian (Italian ryegrass, Lolium multiflorum); assay: Test A preemergence, Ryegrass, Italian; conditions: Preemergence; for Ryegrass, Italian plant response rating: 125 g ai/ha, visual injury on 0 to 100 scale (0 no effect, 100 complete control), approximately 10 days; for Plant response rating, Ryegrass, Italian: 0 to 100 scale (0 no effect, 100 complete control)
Summary of the method: as §1

[16] = 125 g ai/ha, visual injury approx. 10 days, 0 to 100 scale (0 no effect, 100 complete control)
[17] = 0 to 100 scale (0 no effect, 100 complete control)
[18] = 31 g ai/ha, visual injury on 0 to 100 scale (0 no effect, 100 complete control), approx. 10 days
[19] = 125 g ai/ha, 0 to 100 scale (0 no effect, 100 complete control)
[20] = 31 g ai/ha, visual injury, approx. 10 days

Cc1cc(C)c(C2=NOC3CCCCC23)cc1NS(=O)(=O)C(F)(F)F (racemic) [Compound 125]
Plant response rating, Corn (corn (Zea mays); [16]): 0
Corn plant response rating (corn (Zea mays); [17]): 60
Plant response rating, Ragweed [1, 16]: 60
Ragweed plant response rating [1, 17]: 80
Plant response rating, Kochia (kochia (Bassia scoparia) [2]; [16]): 70
Kochia plant response rating (kochia (Bassia scoparia) [2]; [17]): 80
Plant response rating, Ryegrass, Italian [3, 16]: 0
Ryegrass, Italian plant response rating [3, 17]: 70
Plant response rating, Wheat [4, 16]: 30
Wheat plant response rating [4, 17]: 70
Plant response rating, Galium [5, 16]: 90
Galium plant response rating [5, 17]: 90
Foxtail, Giant plant response rating [6]: 100
Plant response rating, Foxtail, Giant ([6]; 500 g ai/ha): 100
Pigweed plant response rating [7]: 100
Plant response rating, Pigweed ([7]; 500 g ai/ha): 100
Plant response rating, Foxtail, Giant [8, 16]: 20
Foxtail, Giant plant response rating [8, 17]: 50
Plant response rating, Pigweed [9, 16]: 60
Pigweed plant response rating [9, 17]: 90
Barnyardgrass plant response rating [10]: 100
Plant response rating, Barnyardgrass ([10]; 500 g ai/ha): 100
Kochia plant response rating (kochia (Bassia scoparia) [11]): 90
Plant response rating, Kochia (kochia (Bassia scoparia) [11]; 500 g ai/ha): 100
Plant response rating, Barnyardgrass [12, 16]: 80
Barnyardgrass plant response rating [12, 17]: 90
Ragweed plant response rating [13]: 60
Plant response rating, Ragweed ([13]; 500 g ai/ha): 80
Plant response rating, Blackgrass [14, 16]: 10
Blackgrass plant response rating [14, 17]: 60
Ryegrass, Italian plant response rating [15]: 100
Plant response rating, Ryegrass, Italian ([15]; 500 g ai/ha): 100

CC(=O)OCN(c1cc(C2=NO[C@@H]3CCC[C@H]23)c(C)cc1C)S(=O)(=O)C(F)(F)F (relative stereo) [Compound 102]
Plant response rating, Corn (corn (Zea mays); [16]): 10
Corn plant response rating (corn (Zea mays); [17]): 30
Plant response rating, Ragweed [1, 16]: 70
Ragweed plant response rating [1, 17]: 90
Plant response rating, Kochia (kochia (Bassia scoparia) [2]; [16]): 70
Kochia plant response rating (kochia (Bassia scoparia) [2]; [17]): 90
Plant response rating, Ryegrass, Italian [3, 16]: 80
Ryegrass, Italian plant response rating [3, 17]: 90
Plant response rating, Wheat [4, 16]: 40
Wheat plant response rating [4, 17]: 80
Plant response rating, Galium [5, 16]: 100
Galium plant response rating [5, 17]: 100
Foxtail, Giant plant response rating [6]: 80
Plant response rating, Foxtail, Giant ([6]; 500 g ai/ha): 90
Pigweed plant response rating [7]: 100
Plant response rating, Pigweed ([7]; 500 g ai/ha): 100
Plant response rating, Foxtail, Giant [8, 16]: 30
Foxtail, Giant plant response rating [8, 17]: 70
Plant response rating, Pigweed [9, 16]: 70
Pigweed plant response rating [9, 17]: 80
Barnyardgrass plant response rating [10]: 80
Plant response rating, Barnyardgrass ([10]; 500 g ai/ha): 100
Kochia plant response rating (kochia (Bassia scoparia) [11]): 70
Plant response rating, Kochia (kochia (Bassia scoparia) [11]; 500 g ai/ha): 90
Plant response rating, Barnyardgrass [12, 16]: 90
Barnyardgrass plant response rating [12, 17]: 90
Ragweed plant response rating [13]: 20
Plant response rating, Ragweed ([13]; 500 g ai/ha): 70
Plant response rating, Blackgrass [14, 16]: 0
Blackgrass plant response rating [14, 17]: 0
Ryegrass, Italian plant response rating [15]: 90
Plant response rating, Ryegrass, Italian ([15]; 500 g ai/ha): 90

Cc1cc(C)c(C(=O)N2CCCC(F)C2)cc1NS(=O)(=O)C(F)(F)F (stereo not drawn) [Compound 155]
Plant response rating, Corn (corn (Zea mays); [18]): 50
Plant response rating, Corn (corn (Zea mays); [19]): 90
Plant response rating, Ragweed [1, 18]: 60
Plant response rating, Ragweed [1, 19]: 80
Plant response rating, Kochia (kochia (Bassia scoparia) [2]; [18]): 20
Plant response rating, Kochia (kochia (Bassia scoparia) [2]; [19]): 60
Plant response rating, Ryegrass, Italian [3, 18]: 40
Plant response rating, Ryegrass, Italian [3, 19]: 90
Plant response rating, Wheat [4, 18]: 30
Plant response rating, Wheat [4, 19]: 60
Plant response rating, Galium [5, 18]: 80
Plant response rating, Galium [5, 19]: 90
Plant response rating, Foxtail, Giant [6, 20]: 50
Foxtail, Giant plant response rating [6]: 80
Plant response rating, Pigweed [7, 20]: 90
Pigweed plant response rating [7]: 100
Plant response rating, Foxtail, Giant [8, 18]: 20
Plant response rating, Foxtail, Giant [8, 19]: 30
Plant response rating, Pigweed [9, 18]: 80
Plant response rating, Pigweed [9, 19]: 90
Plant response rating, Barnyardgrass [10, 20]: 50
Barnyardgrass plant response rating [10]: 90
Plant response rating, Kochia (kochia (Bassia scoparia) [11]; [20]): 30
Kochia plant response rating (kochia (Bassia scoparia) [11]): 40
Plant response rating, Barnyardgrass [12, 18]: 90
Plant response rating, Barnyardgrass [12, 19]: 90
Plant response rating, Ragweed [13, 20]: 90
Ragweed plant response rating [13]: 80
Plant response rating, Blackgrass [14, 18]: 10
Plant response rating, Blackgrass [14, 19]: 30
Plant response rating, Ryegrass, Italian [15, 20]: 80
Ryegrass, Italian plant response rating [15]: 80
